From patent US4847256A, “4,5-dihydro and 4,5,6,7-tetrahydropyrazolo(1,5-A)-pyrimidines” (American Cyanamid Company, priority 1986, dated 1989)

Legend:
[1] = tested on: spontaneously hypertensive rats of the Okamoto strain; assay: Reduction of mean arterial blood pressure in spontaneously hypertensive rats; format: in vivo, rat (Okamoto strain; settings: 100 mg/kg or less by gavage, two doses 24 h apart; MABP at 28 hours; number of rats in parentheses in cell; untreated average 160±1.5 mm Hg
Procedure: Certain of the novel compounds of the present invention are active hypotensive agents at nontoxic doses when administered to mammals. These compounds were tested for hypotensive activity by the method of P. S. Chan and D. W. Poorvin, Clinical and Experimental Hypertension, 1 (6), 817-830 (1979). Male, 16 week old, spontaneously hypertensive rats of the Okamoto strain having an average mean arterial blood pressure of 160±1.5 mm of mercury are used in the test. One to three rats are used per test compound. A rat is dosed by gavage with a test compound, suspended in 2% pre-boiled starch at a concentration of 50 mg/ml, at a dose of 100 mg/kg of body weight or less, with 0.9% sodium chloride loading at a dose of 25 ml/kg of body weight. A second identical dose of the test compound, without sodium chloride loading is given 24 hours later. At 28 hours after the initial dose the mean arterial blood pressure is measured by the method of Chan and Poorvin vide supra. The procedure is repeated in a second and third rat when necessary.

[2] = tested on: clonic seizures caused by pentylenetetrazole in rats; assay: Protection against clonic seizures caused by pentylenetetrazole in rats; format: in vivo, rat; settings: 25 mg/kg, oral or intraperitoneal; pentylenetetrazole 23 mg/kg i.v. at 30 or 60 minutes; active if >=50% protected
Procedure: The antianxiety properties of the novel compounds of the present invention have been established in a test which indicates anxiolytic activity by the measure of protection from convulsions resulting from the administration of pentylenetetrazole. Single or graded dose levels of the test compounds were administered orally or intraperitoneally in a 2% starch vehicle containing 0.5% v/v polyethylene glycol and one drop of polysorbate 80, or distilled water and one drop of polysorbate 80 to groups of at least 4 rats. At 30 or 60 minutes, the rats were treated intravenously with pentylenetetrazole at a dose of 23 mg/kg of body weight. This dose is estimated to cause clonic seizures in 99% of unprotected rats. The test compounds are considered active if they protect 50% or more of the rats from clonic seizures. It has been reported [R. T. Hill and D. H. Tedeschi, "Animal Testing and Screening Procedures in Evaluating Psychotropic Drugs" in "An Introduction to Psychopharmacology", pp. 237-288 (Eds. R. R. Rech and K. E. Moore, Raven Press, New York, 1971) that there is a high degree of correlation between antagonism of pentylenetetrazole seizures in rats and antianxiety effects in higher warm-blooded animals.

[3] = tested on: Wistar strain male rats (conflict procedure); assay: Non-conditioned passive avoidance (conflict) procedure in rats; format: in vivo, rat (Wistar); settings: 25 mg/kg, oral, 60 minutes before test
Procedure: Another test used to assess antianxiety effects is a non-conditioned passive avoidance procedure described by J. R. Vogel, B. Beer and D. E. Clody, "A Simple and Reliable Conflict Procedure for Testing Antianxiety Agents", Psychopharmacologia, 21:1-7 (1971). A conflict situation is induced in rats by a modification of this method.
Groups of 8 naive, Wistar strain male rats weighing 200-240 g each were deprived of water for 48 hours. The test compounds were administered in single or graded, oral doses, suspended in 2% starch with 5% polyethylene glycol in distilled water and one drop of polysorbate 80. Control animals received the vehicle alone. At 60 minutes each rat was placed in an individual clear plastic chamber. Tap water was available ad libitum from a nipple located in a black box off the main chamber. A 0.7 milliampere AC shocking current was established between the stainless steel grid floor and the tap. After 20 licks of non-shocked drinking, a 2 second shocking current was administered to the rat. This ratio of 20 licks of non-shocked drinking followed by a 2 second shock was continued for a total of 3 minutes. The number of shocks taken by each rat during the 3 minute interval was recorded and compared to a control group. […]

[4] = tested on: brain-specific receptors (benzodiazepine binding); assay: Inhibition of the binding of 3H-benzodiazepine to brain-specific receptors of rats; set-up: species or system rat (Wistar); settings: 3H-diazepam (1.5 nM) or 3H-flunitrazepam (1.0 nM), rat cortex P2 fraction, pH 7.4, 30 minutes in ice; 12% or more = active; test concentration not given
Source text: Still another test utilized for the determination of anxiolytic activity is the measurement of the ability of a test compound to inhibit the binding of tritiated benzodiazepines to brain-specific receptors of mammals. A modification of the method described by R. F. Squires, et al., Nature, 266, No. 21:732 (April, 1977) and H. Mohler, et al., Science, 198:849 (1977) was employed.
Male albino rats (Wistar strain, weighing 150-200 g each) were used. The test compounds were solubilized in dimethylformamide, acetic acid, ethanol or hydrochloric acid.
Whole cortex of rats was homogenized gently in 20 volumes of ice-cold 0.32 M sucrose, centrifuged twice at 1000 g for 10 minutes and then recentrifuged at 30,000 g for 20 minutes to produce a crude P2 -synaptosomal fraction. The P2 -fraction was either: (1) resuspended in twice the original volume in hypotonic 50 mM Tris.HCl (pH 7.4), or (2) resuspended in one-half the original volume in hypotonic 10 mM Tris.HCl (pH 7.4) and frozen (-20° C.) until time of use. Frozen P2 preparations were thawed and resuspended in four times the original homogenizing volume at time of assay.
The binding assay consisted of 300 μl of the P2 -fraction suspension (0.2-0.4 mg protein), 100 μl of test drug and 100 μl of ^3 H-diazepam (1.5 nM, final concentration) or ^3 H-flunitrazepam (1.0 nM, final concentration) which was added to 1.5 ml of […] Tris.HCl (pH 7.4). Nonspecific binding controls and total binding controls received 100 μl of diazepam (3 μM final concentration) and 100 μl of deionized water, respectively, in place of the test compound. Incubation for 30 minutes proceeded in ice and was terminated by filtration, under vacuum, through glass fiber filters. The filters were washed twice with 5 ml of ice-cold 50 mM Tris.HCl (pH 7.4) and placed in scintillation vials. After drying at 50°-60° C. for 30 minutes, 10 ml of diluent was added and the radioactivity determined in a scintillation counter.
Inhibition of binding was calculated by the difference between total binding and binding in the presence of test compound, divided by the total binding, ×100. Physiological activity can be shown by a test compound that inhibits ^3 H-benzodiazepine binding by 12% or more.

[5] = tested on: rats (stress induced immobility); assay: Stress Induced Immobility Test; format: in vivo, rat; settings: 25 mg/kg intraperitoneally, 15 minutes at 44.5° C.; control 200 seconds
Procedure: The compounds of this invention are active as antidepressant agents in warm-blooded animals as evidenced by their results when tested in the Stress Induced Immobility Test. In this test, rats were confined on a warm (44.5° C.), but aversive, surface for 15 minutes. After 5-6 minutes, control rats began to show episodes of behavior where they remained flat and immobile for periods of time. The total duration of this behavior was timed. The average duration of immobility in the control rats was 200 seconds. The test compounds were administered intraperitoneally at 25 mg/kg of body weight. A compound was considered active if the maximum duration time was <100 seconds (less than 50% of the control value) in more than 50% of the rats.

| SMILES | MABP/mm Hg (no. of rats) [1] [mm Hg] | % Inhibition of 3H-benzodiazepine binding [4] [%] | other results |
| --- | --- | --- | --- |
| N#Cc1cnn2c1NCCC2c1cccc(C(F)(F)F)c1 (stereo not drawn) [4,5,6,7-Tetrahydro-7-[3-(trifluoromethyl)phenyl]pyrazolo[1,5-a]pyrimidine-3-carbonitrile] | 128 | – | – |
| O=C(c1ccccc1)c1cnn2c1NCC=C2c1cccc(C(F)(F)F)c1 [[4,5-Dihydro-7-[3-(trifluoromethyl)phenyl]pyrazolo[1,5-a]pyrimidin-3-yl]phenylmethanone] | 122 | 76 | % of Rats Protected (against clonic seizures) [2]: 75%; Result (no. of shocks per 3 min.) [3]: 19.1 no. of shocks per 3 min. |
| CC1=C(c2cccc(Cl)c2)n2ncc(C#N)c2NC1 [7-(3-Chlorophenyl)-4,5-dihydro-6-methylpyrazolo[1,5-a]pyrimidine-3-carbonitrile] | – | – | Mean Duration (Seconds) of immobility [5]: 66.7 s |
| NC(=O)c1cnn2c1NCCC2 [4,5,6,7-Tetrahydropyrazolo[1,5-a]pyrimidine-3-carboxamide] | 137 | – | – |
| N#Cc1cnn2c1NCC=C2c1ccc(Cl)c(Cl)c1 [7-(3,4-Dichlorophenyl)-4,5-dihydropyrazolo[1,5-a]pyrimidine-3-carbonitrile] | – | 12 | – |
| CN1CC=C(c2cccc(C(F)(F)F)c2)n2ncc(C#N)c21 [4,5-Dihydro-4-methyl-7-[3-(trifluoromethyl)phenyl]pyrazolo[1,5-a]pyrimidine-3-carbonitrile] | – | 12 | Result (no. of shocks per 3 min.) [3]: 19.0 no. of shocks per 3 min. |
| Cc1nn2c(c1C(N)=O)NCC=C2c1cc(Cl)ccc1Cl [7-(2,5-Dichlorophenyl)-4,5-dihydro-2-methylpyrazolo[1,5-a]pyrimidine-3-carboxamide] | 95 | – | – |
| FC(F)(F)c1cccc(C2=CCNc3ccnn32)c1 [4,5-Dihydro-7-[3-(trifluoromethyl)phenyl]pyrazolo[1,5-a]pyrimidine] | – | 48 | – |
| NC(=O)c1cnn2c1NCC=C2c1ccccc1 [4,5-Dihydro-7-phenylpyrazolo[1,5-a]pyrimidine-3-carboxamide] | – | – | % of Rats Protected (against clonic seizures) [2]: 50% |
| CCOC(=O)c1cnn2c1NCC=C2c1cccc(C(F)(F)F)c1 [4,5-Dihydro-7-[3-(trifluoromethyl)phenyl]pyrazolo[1,5-a]pyrimidine-3-carboxylic acid, ethyl ester] | – | 90 | – |
| N#Cc1cnn2c1NCC=C2c1ccccc1 [4,5-Dihydro-7-phenylpyrazolo[1,5-a]pyrimidine-3-carbonitrile] | – | 20 | – |
| CC1CC(c2ccc(Cl)cc2)n2ncc(C#N)c2N1 (stereo not drawn) [7-(4-Chlorophenyl)-4,5,6,7-tetrahydro-5-methylpyrazolo[1,5-a]pyrimidine-3-carbonitrile] | – | – | Mean Duration (Seconds) of immobility [5]: 4.7 s |
| CC(C)(C)C(=O)c1cnn2c1NCCC2 [2,2-Dimethyl-1-(4,5,6,7-tetrahydropyrazolo[1,5-a]pyrimidin-3-yl)-1-propanone] | 114 | 28 | – |
| NC(=O)c1cnn2c1NCC=C2c1cccc(C(F)(F)F)c1 [4,5-Dihydro-7-[3-(trifluoromethyl)phenyl]pyrazolo[1,5-a]pyrimidine-3-carboxamide] | 108 | – | – |
| CCOC(=O)c1cnn2c1NCC=C2c1ccccc1 [4,5-Dihydro-7-phenylpyrazolo[1,5-a]pyrimidine-3-carboxylic acid, ethyl ester] | – | 54 | – |
| N#Cc1cnn2c1NCC=C2c1cccc(C(F)(F)F)c1 [4,5-Dihydro-7-[3-(trifluoromethyl)phenyl]pyrazolo[1,5-a]pyrimidine-3-carbonitrile] | – | 15 | – |
| O=C(c1ccccc1)c1cnn2c1NCCC2c1ccncc1 (stereo not drawn) [Phenyl[4,5,6,7-tetrahydro-7-(4-pyridinyl)pyrazolo[1,5-a]pyrimidin-3-yl]methanone] | 125 | 22 | – |
| CC1CC(c2cccc(Cl)c2)n2ncc(C#N)c2N1 (stereo not drawn) [7-(3-Chlorophenyl)-4,5,6,7,-tetrahydro-5-methylpyrazolo[1,5-a]pyrimidine-3-carbonitrile] | – | – | Mean Duration (Seconds) of immobility [5]: 75.4 s |
| NC(=O)c1cnn2c1NCC=C2c1cccc(F)c1 [7-(3-Fluorophenyl)-4,5-dihydropyrazolo[1,5-a]pyrimidine-3-carboxamide] | – | 39 | – |
| CC1=C(c2cccc(C(F)(F)F)c2)n2ncc(C#N)c2NC1 [4,5-Dihydro-6-methyl-7-[3-(trifluoromethyl)phenyl]pyrazolo[1,5-a]pyrimidine-3-carbonitrile] | – | – | Mean Duration (Seconds) of immobility [5]: 55.0 s |
| FC(F)(F)c1cccc(C2=CCNc3c(Cl)cnn32)c1 [3-Chloro-4,5-dihydro-7-[3-(trifluoromethyl)phenyl]pyrazolo[1,5-a]pyrimidine] | – | 63 | – |
